The record followed here is patent publication US11091476B2, “Protein kinase inhibitors, preparation method and medical use thereof” (Gan & Lee Pharmaceuticals, priority 2015, dated 2021).

The target in one test is CDK1/CyclinA2 (Homo sapiens (Human), UniProt P06493). The experiment in a line: CDK kinase inhibitory activity, ADP-Glo Kinase Assay, CDK1/CyclinA2. The class given is biochemical.
The next test has as its target CDK6/CyclinD3 (Homo sapiens (Human), UniProt Q00534). The experiment in a line: CDK kinase inhibitory activity, ADP-Glo Kinase Assay, CDK6/CyclinD3. The class given is biochemical. In general terms: In ADP-Glo the light output rises with the ADP produced.
The target in another test is CDK9/CyclinD3 (Homo sapiens (Human), UniProt P50750). Put plainly: Kinase inhibitory activity, ADP-Glo Kinase Assay, CDK9/CyclinD3. The class given is biochemical. The method, then:
(§1) 1.1 Instrument and Kit Information
(§2) 1.2 Experimental Preparation • 1.2.1 Preparation of Kinase Reaction Buffer I: The 5×Reaction Buffer A (Promega; V307A-C) provided in the kit was mixed and diluted with MILLI-Q® H2O and 0.1 M DTT (dithiothreitol) to give 4× kinase buffer, and then MILLI-Q® H2O was further added to finally formulate the solution into 1× Kinase buffer.
(§3) 1 μl of 10 mM standard substance stock solution was taken and added to 9 μl of kinase reaction buffer I and mixed well; then 90 μl of kinase reaction buffer I was added and mixed well; then 100 μl of kinase reaction buffer I was added and mixed well. The final concentration was 50 μM. • b. 40 μl of kinase reaction buffer II was added into B2 to B10 of a 96-well plate, and 50 μl of the above solution was added into B1; • c. 10 μl of solution was taken from well B1, added into B2, and mixed well; then 10 μl of the resulting solution was taken and added into B3, and dilution was carried out in sequence to B9, so as to obtain control solutions that are diluted by 5-fold sequentially. • (2) Preparation of test compound solution: • a. Test compound solutions at a certain concentration were taken, respectively, diluted with kinase reaction buffer I to a final concentration of 50 μM compound solution; • b. 40 μl of kinase reaction buffer II was added into H2 to H10 of the 96-well plate; and 50 μl of the above solution was added into H1; • c. 10 μl of solution was taken from well H1, added into H2, and mixed well; then 10 μl of the resulting solution was taken and added into H3, and dilution was carried out in sequence to H9, so as to obtain test compound solutions that are diluted by 5-fold sequentially. • 1.2.4 Preparation of a mixed solution of reaction substrate and ATP: • a. Preparation of ATP solution: • 200 μl of 0.1 mM ATP solution: 2 μl of 10 mM ATP was added to 198 μl of kinase reaction buffer I; • 300 μl of 50 μM ATP solution: 150 μl of kinase reaction buffer I was added to 150 μl of the above 0.1 mM ATP solution; • b. Preparation of 300 μl of reaction substrate solution: • 150 μl 1 μg/μl reaction substrate stock solution was added to 150 μl kinase reaction buffer I, and mixed well; • c. The above a/b solutions were mixed to obtain mixed solutions, respectively.
(§4) 1.3 Experimental process: • 1.3.1: 2 μl of compound solutions of various concentrations were taken, added to a 384-well plate, and centrifuged 3 minutes; • 1.3.2: 4 μl of kinase solution was added to each well, centrifuged at 5000 rpm and 18° C. for 10 minutes, and shaken on a plate shaker for 10 minutes; • 1.3.3: 4 μl of mixed solution of substrate and ATP was added to each well, centrifuged at 5000 rpm and 18° C. for 10 minutes, and shaken on a plate shaker at 37° C. for 90 minutes; • 1.3.4: The 384-well plate was taken out, and allowed to stand to room temperature; • 1.3.5: 10 μl of ADP-GLO™ reagent was added to each well, centrifuged at 5000 rpm and 18° C. for 18 minutes, and shaken on a plate shaker at 25° C. for 40 minutes, and then the reaction was stopped; • 1.3.6: 20 μl of kinase detection reagent was added to each well, centrifuged at 5000 rpm and 18° C. for 10 minutes, and shaken on a plate shaker at 25° C. for 30 minutes; and • 1.3.7: M1000pro MICROPLATE READER was used to read […] values.
(§5) The inhibition rate of each compound at each concentration point was calculated by the formula as follows and curve fitting was performed by GraphPad Prism 5 software to obtain the IC50 value.

The target in another test is Pim-1 (Homo sapiens (Human), UniProt P11309). The experiment in a line: Kinase inhibitory activity on Pim-1. The class given is biochemical. The method, then: as §2, §3, §4, §5
A further test addresses CDK4/CyclinE1 (Homo sapiens, UniProt P11802). The settings on record: read-out: CDK4/CyclinE1 IC50. On the procedure:
Measurement of CDK kinase inhibitory activity of the compounds of this disclosure.
In vitro inhibitory effect of the compounds of the disclosure on CDK (CDK1, CDK4 and CDK6) kinase activity was tested by the following method.
as §1, §2
The final concentration was 50 μM. • b. 40 μl of kinase reaction buffer II was added into B2 to B10 of a 96-well plate, and 50 μl of the above solution was added into B1; • c. […]
as §4, §5

Test [1] concerns U87-luc orthotopic brain xenograft. The experiment in a line: Pharmacodynamic study in U87-luc orthotopic brain xenograft model, median survival. The class given is in vivo, BALB/c nude mice. Particulars: Temozolomide 3 mg/kg IP Day 0, 7, 14, 21 and 28; survival time range in brackets. The source says: Pharmacodynamic study of the compound 17 of this disclosure and the combination of compound 17 of the disclosure and temozolomide in a U87-luc orthotopic brain xenograft model
Adult female BALB/c nude mice were used as test animals. A U87-luc orthotopic brain xenograft model was used to study the effect of representative compound 17 of this disclosure on the median survival of female BALB/c nude mice after intragastric administration.
Healthy adult female BALB/c nude mice, 8 mice/group, 6-8 weeks old, weighing 18-22 g, purchased from Shanghai SIPPR-BK Laboratory Animal Co., Ltd., Animal Production License No: 2008001658261; 2008001658263. • 7.2.3 Preparation of the test compounds
An appropriate amount of compound 17 was weighed, and added with 0.1% hydroxyethyl cellulose/0.5% TWEEN®80 as vehicle to 0.3125 mg/ml;
An appropriate amount of Temozolomide sample was weighed, and added with 0.1% CMC-Na+0.25% TWEEN®80 as vehicle to 0.3 mg/ml.
Adult female BALB/c nude mice were anesthetized by intraperitoneal injection of sodium pentobarbital at a dose of 80 mg/kg. To relieve pain, animals were injected subcutaneously with buprenorphine at the time points 30 minutes before operation and 6 hours after operation at a dose of 0.1 mg/kg. Animals were observed after anesthesia until all animals had awakened.
The anesthetized animals were properly fixed, the animals' head skin was sterilized with 70% ethanol, and an approximately 10 mm long incision was made on the right side of the midline from the forehead to the ear line. 3×10^5 U87-luc cells (3 μl, mixture of PBS and Matrigel at a ratio of 4:1) were inoculated at the right frontal lobe that is 2 mm away from the right side of the bregma and is 1 mm away from the front side of the coronal suture in each animal. The incision was sutured with a No. 6 suture, and sterilized with polyvinylpyrrolidone. Animals are kept warm until anabiosis. Six days after tumor cell transplantation, tumor animals were grouped by stratified randomization based on […] signal intensity values, and the average bioluminescence reached 2.812E+07 photons/sec when the groups were administered in groups. Different animal groups were administered at different doses for a total of 35 days.

On to `CC1=Nc2c(F)cc(-c3nc(Nc4ccc(N5CCNCC5)cn4)ncc3F)cc2C12CCCC2` [Example 6, 5-fluoro-4-(7′-fluoro-2′-methylspiro[cyclopentane-1,3′-indol]-5′-yl)-N-(5-(piperazin-1-yl)pyridin-2-yl)pyrimidine-2-amino], for which the IC50 against CDK1/CyclinA2 stood at 152 nM; at CDK6/CyclinD3, 6.45 nM; at CDK9/CyclinD3, 0.42 nM; against Pim-1 it was 15.1 nM; at CDK4/CyclinE1, 80.9 nM. The CDK1/CDK6 on CDK6/CyclinD3 (ratio of IC50s, selectivity for CDK6 over CDK1) amounted to 23.59. In addition, the CDK9/CDK6 at CDK6/CyclinD3 (ratio of IC50s, selectivity for CDK6 over CDK9) is listed as 0.06. In addition, the Pim-1/CDK6 at CDK6/CyclinD3 (ratio of IC50s, selectivity for CDK6 over Pim-1) is 2.33.
As for `Cn1nnc2c(C(N)=O)ncn2c1=O` [Temozolomide, reference compound], the Medium survival in test [1] is recorded as 47(38-83) days.
